From US20080194654A1, “HYDROXY-SUBSTITUTED ARYL SULFAMIDE DERIVATIVES AND METHODS OF THEIR USE” (Wyeth, priority 2006, published 2008)

Target: hDAT (Homo sapiens, UniProt Q01959)
Assay: Dopamine transporter (hDAT) membrane binding assay

Sequence of hDAT (Q01959 whole entry): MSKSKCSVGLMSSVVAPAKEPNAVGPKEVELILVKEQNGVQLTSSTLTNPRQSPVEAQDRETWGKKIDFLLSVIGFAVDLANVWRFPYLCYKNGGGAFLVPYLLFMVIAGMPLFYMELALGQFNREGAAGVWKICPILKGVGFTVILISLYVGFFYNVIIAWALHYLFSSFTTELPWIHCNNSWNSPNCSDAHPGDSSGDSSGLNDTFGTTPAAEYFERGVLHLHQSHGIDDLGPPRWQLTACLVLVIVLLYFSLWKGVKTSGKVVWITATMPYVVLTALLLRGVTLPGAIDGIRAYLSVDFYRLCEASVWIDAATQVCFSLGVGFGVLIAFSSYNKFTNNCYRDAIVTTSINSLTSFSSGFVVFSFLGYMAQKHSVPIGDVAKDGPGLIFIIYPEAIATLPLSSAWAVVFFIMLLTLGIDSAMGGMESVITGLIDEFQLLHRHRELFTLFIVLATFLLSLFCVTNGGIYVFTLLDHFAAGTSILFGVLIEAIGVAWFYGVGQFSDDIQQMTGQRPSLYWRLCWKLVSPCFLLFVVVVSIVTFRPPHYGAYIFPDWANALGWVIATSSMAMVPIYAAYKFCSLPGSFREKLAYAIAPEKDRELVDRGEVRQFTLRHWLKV

Q: Which IC50 does the source give for `CCNC[C@@H](O)CCN1c2ccccc2N(c2ccccc2F)S1(=O)=O` here?
A: > 1 µM
